{
  "source": "patent US11117947B2",
  "about": "“Double-acylated GLP-1 derivatives” (Novo Nordisk A/S, priority 2011, dated 2021)",
  "key": {"[1]": {"assay": "Estimate of oral bioavailability: gut injection in rat (caprate), exposure in plasma", "format": "in vivo", "settings": "injection in jejunum, 1000 uM in 55 mg/ml sodium caprate, plasma concentration (pM) at 30 min divided by dosing solution concentration (μM), mean n=4", "how_it_was_run": "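Male Sprague Dawley rats (~240 g, n=4) received 100 μl of 1000 uM derivative in 55 mg/ml sodium caprate by catheter into proximal or mid jejunum. Tail-vein EDTA plasma was sampled up to 240 min. Peptide was quantified by two-antibody bead chemiluminescence immunoassay, giving mean concentration-time profiles (pmol/l).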"}, "[2]": {"assay": "Half-life in minipigs after i.v. administration", "format": "in vivo", "settings": "minipig, plasma, iv, male Göttingen minipigs, read-out: terminal half-life (converted)", "text": "By terminal half-life is generally meant the period of time it takes to halve a certain plasma concentration, measured after the initial distribution phase."}, "[3]": {"assay": "Pharmacokinetics in rat: half-life after i.v. administration", "format": "in vivo", "settings": "plasma, iv, 6 nmol/kg, male Sprague Dawley rats, approximately 4 rats per group, read-out: t½/h (half-life in rat) (converted)", "procedure": "In vivo pharmacokinetic studies in rats were performed with the GLP-1 derivatives of Examples 2, 10, 17-18, and 31, as described in the following. Semaglutide was included for comparison.\nMale Sprague Dawley rats of same age with a body weight of approximately 400 g were obtained from Taconic (Denmark) and assigned to the treatments by simple randomisation on body weight, approximately 4 rats per group, so that all animals in each group were of similar body weight.\nThe GLP-1 derivatives (approximately 6 nmol/ml) were dissolved in 50 mM sodium phosphate, 145 mM sodium chloride, 0.05% tween 80, pH 7.4. Intravenous injections (1.0 ml/kg) of the compounds were given through a catheter implanted in the right jugular vein. Blood was sampled from vena sublingualis for 5 days post dosing. Blood samples (200 μl) were collected in EDTA buffer (8 mM) and then centrifuged at 4° C. and 10000 G for 5 minutes. Plasma samples were kept at −20° C. until analyzed for plasma concentration of the respective GLP-1 compound.\nThe plasma concentrations of the GLP-1 compounds were determined using a Luminescence Oxygen Channeling Immunoasssay (LOCI), generally as described for the determination of insulin by Poulsen and Jensen in Journal of Biomolecular Screening 2007, vol. 12, p. 240-247. The donor beads were coated with streptavidin, while acceptor beads were conjugated with a monoclonal antibody recognising a mid-/C-terminal epitope of the peptide. Another monoclonal antibody, specific for the N-terminus, was biotinylated. The three reactants were combined with the analyte and formed a two-sited immuno-complex. Illumination of the complex released singlet oxygen atoms from the donor beads, which were channeled into the acceptor beads and triggered chemiluminescence which was measured in an Envision plate reader. The amount of light was proportional to the concentration of the compound.\nPlasma concentration-time profiles were analyzed using Phoenix WinNonLin ver. 6.2, Pharsight Inc., Mountain View, Calif., USA), and the half-life (T1/2) calculated using individual plasma concentration-time profiles from each animal."}, "[4]": {"molecular_target": "T1, human GLP-1 receptor (Homo sapiens, UniProt P43220)", "T1 construct": "expressed in transfected cells; membranes", "T1 sequence (P43220 24-463)": "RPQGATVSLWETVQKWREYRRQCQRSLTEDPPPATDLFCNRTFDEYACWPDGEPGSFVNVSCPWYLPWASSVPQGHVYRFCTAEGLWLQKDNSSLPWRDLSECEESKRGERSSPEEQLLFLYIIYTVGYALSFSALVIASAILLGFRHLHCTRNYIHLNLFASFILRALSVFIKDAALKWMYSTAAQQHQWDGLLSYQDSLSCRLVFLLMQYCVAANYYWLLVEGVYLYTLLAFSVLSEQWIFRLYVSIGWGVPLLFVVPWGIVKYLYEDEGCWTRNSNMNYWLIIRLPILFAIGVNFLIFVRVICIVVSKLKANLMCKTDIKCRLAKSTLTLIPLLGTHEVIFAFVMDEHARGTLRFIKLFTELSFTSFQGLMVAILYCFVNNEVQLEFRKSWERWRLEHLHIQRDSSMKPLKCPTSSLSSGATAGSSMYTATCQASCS", "assay": "GLP-1 receptor binding: displacement of 125I-GLP-1 (SPA) at low and high albumin", "settings": "2.0% HSA vs 0.001% HSA", "how_it_was_run": "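Membranes from hamster cells stably transfected with the receptor, with WGA SPA beads and 0.06 nM [^125I]-GLP-1(7-36)NH2, incubated 120 min at 30 °C with shaking.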"}},
  "note": "Numbered stars: 1 amine (or outer) side, 2 acyl side, 3 side chain; on linkers, the order of the positions; unused ones are H or OH. Square brackets hold non-standard residues; d marks the D form. Side chains are listed from the residue outwards. Peptide text beside a SMILES is read from it. * marks the point of attachment. Decanoyl(10-(4-HOOC-PhO)) = O=C(O)c1ccc(OCCCCCCCCCC(=O)*)cc1; γGlu = O=C(O)[C@H](CCC(=O)[*:2])N[*:1]; C14 diacid = O=C(O)CCCCCCCCCCCCC(=O)*; AEEA = NCCOCCOCC(=O)O; Aib = CC(C)(N)C(=O)O",
  "data": [
    {"molecule": "CC[C@H](C)[C@H](NC(=O)[C@H](Cc1ccccc1)NC(=O)[C@H](CCCCNC(=O)COCCOCCNC(=O)COCCOCCNC(=O)CC[C@H](NC(=O)CCCCCCCCCOc1ccc(C(=O)O)cc1)C(=O)O)NC(=O)[C@H](CCCNC(=N)N)NC(=O)[C@H](C)NC(=O)[C@H](C)NC(=O)[C@H](CCC(N)=O)NC(=O)[C@H](CCC(=O)O)NC(=O)[C@H](CCC(=O)O)NC(=O)[C@H](CC(C)C)NC(=O)[C@H](Cc1ccc(O)cc1)NC(=O)[C@H](CO)NC(=O)[C@H](CO)NC(=O)[C@@H](NC(=O)[C@H](CC(=O)O)NC(=O)[C@H](CO)NC(=O)[C@@H](NC(=O)[C@H](Cc1ccccc1)NC(=O)[C@@H](NC(=O)CNC(=O)[C@H](CCC(=O)O)NC(=O)[C@H](C)NC(=O)[C@@H](N)Cc1c[nH]cn1)[C@@H](C)O)[C@@H](C)O)C(C)C)C(=O)N[C@@H](CCC(=O)O)C(=O)N[C@@H](Cc1c[nH]c2ccccc12)C(=O)N[C@@H](CC(C)C)C(=O)N[C@H](C(=O)N[C@@H](CCCNC(=N)N)C(=O)NCC(=O)N[C@@H](CCCCNC(=O)COCCOCCNC(=O)COCCOCCNC(=O)CC[C@H](NC(=O)CCCCCCCCCOc1ccc(C(=O)O)cc1)C(=O)O)C(=O)NCC(=O)N[C@@H](CCC(=O)O)C(=O)NCC(=O)O)C(C)C", "note": "[Example 2, N^ε27-[2-[2-[2-[[2-[2-[2-[[(4S)-4-carboxy-4-[10-(4-carboxyphenoxy)decanoylamino]butanoyl]amino]ethoxy]ethoxy]acetyl]amino]ethoxy]ethoxy]acetyl], N^ε36-[2-[2-[2-[[2-[2-[2-[[(4S)-4-carboxy-4-[10-(4-carboxyphenoxy)decanoylamino]butanoyl]amino]ethoxy]ethoxy]acetyl]amino]ethoxy]ethoxy]acetyl]-[Glu^22,Arg^26,Lys^27,Glu^30,Arg^34,Lys^36]-GLP-1-(7-37)-peptidyl-Glu-Gly] (H-HAEGTFTSDVSSYLEEQAARK([AEEA-AEEA-γGlu-Decanoyl(10-(4-HOOC-PhO))])FIEWLVRGK([AEEA-AEEA-γGlu-Decanoyl(10-(4-HOOC-PhO))])GEG-OH; N-terminus and C-terminus assumed)", "values": [
      {"measurement": "Dose-corrected exposure at 30 min", "setting": "[1]", "value": 98},
      {"measurement": "half-life", "setting": "[2]", "value": 87, "unit": "h"},
      {"measurement": "half-life", "setting": "[3]", "value": 26, "unit": "h"}
    ]},
    {"molecule": "CC[C@H](C)[C@H](NC(=O)[C@H](Cc1ccccc1)NC(=O)[C@H](CCCCNC(=O)COCCOCCNC(=O)COCCOCCNC(=O)CC[C@H](NC(=O)CCCCCCCCCOc1ccc(C(=O)O)cc1)C(=O)O)NC(=O)[C@H](Cc1c[nH]cn1)NC(=O)[C@H](C)NC(=O)[C@H](C)NC(=O)[C@H](CCC(N)=O)NC(=O)CNC(=O)[C@H](CCC(=O)O)NC(=O)[C@H](CC(C)C)NC(=O)[C@H](Cc1ccc(O)cc1)NC(=O)[C@H](CO)NC(=O)[C@H](CO)NC(=O)[C@@H](NC(=O)[C@H](CC(=O)O)NC(=O)[C@H](CO)NC(=O)[C@@H](NC(=O)[C@H](Cc1ccccc1)NC(=O)[C@@H](NC(=O)CNC(=O)[C@H](CCC(=O)O)NC(=O)[C@H](C)NC(=O)[C@@H](N)Cc1c[nH]cn1)[C@@H](C)O)[C@@H](C)O)C(C)C)C(=O)N[C@@H](CCC(=O)O)C(=O)N[C@@H](Cc1c[nH]c2ccccc12)C(=O)N[C@@H](CC(C)C)C(=O)N[C@H](C(=O)N[C@@H](CCCNC(=N)N)C(=O)NCC(=O)N[C@@H](CCCCNC(=O)COCCOCCNC(=O)COCCOCCNC(=O)CC[C@H](NC(=O)CCCCCCCCCOc1ccc(C(=O)O)cc1)C(=O)O)C(=O)NCC(=O)N[C@@H](CCC(=O)O)C(=O)O)C(C)C", "note": "[Example 10, N^ε27-[2-[2-[2-[[2-[2-[2-[[(4S)-4-carboxy-4-[10-(4-carboxyphenoxy)decanoylamino]butanoyl]amino]ethoxy]ethoxy]acetyl]amino]ethoxy]ethoxy]acetyl], N^ε36-[2-[2-[2-[[2-[2-[2-[[(4S)-4-carboxy-4-[10-(4-carboxyphenoxy)decanoylamino]butanoyl]amino]ethoxy]ethoxy]acetyl]amino]ethoxy]ethoxy]acetyl]-[His^26,Lys^27,Glu^30,Arg^34,Lys^36]-GLP-1-(7-37)-peptidyl-Glu] (H-HAEGTFTSDVSSYLEGQAAHK([AEEA-AEEA-γGlu-Decanoyl(10-(4-HOOC-PhO))])FIEWLVRGK([AEEA-AEEA-γGlu-Decanoyl(10-(4-HOOC-PhO))])GE-OH; N-terminus and C-terminus assumed)", "values": [
      {"measurement": "Dose-corrected exposure at 30 min", "setting": "[1]", "value": 187},
      {"measurement": "half-life", "setting": "[3]", "value": 23, "unit": "h"}
    ]},
    {"molecule": "CC[C@H](C)[C@H](NC(=O)[C@H](Cc1ccccc1)NC(=O)[C@H](CCCCNC(=O)COCCOCCNC(=O)COCCOCCNC(=O)CC[C@H](NC(=O)CCCCCCCCCCCCC(=O)O)C(=O)O)NC(=O)[C@H](CCCNC(=N)N)NC(=O)[C@@H](NC(=O)[C@H](C)NC(=O)[C@H](CCC(=O)O)NC(=O)[C@H](CCC(=O)O)NC(=O)[C@H](CCC(=O)O)NC(=O)[C@H](CC(C)C)NC(=O)[C@H](Cc1ccc(O)cc1)NC(=O)[C@H](CO)NC(=O)[C@H](CO)NC(=O)[C@@H](NC(=O)[C@H](CC(=O)O)NC(=O)[C@H](CO)NC(=O)[C@@H](NC(=O)[C@H](Cc1ccccc1)NC(=O)[C@@H](NC(=O)CNC(=O)[C@H](CCC(=O)O)NC(=O)[C@H](C)NC(=O)[C@@H](N)Cc1c[nH]cn1)[C@@H](C)O)[C@@H](C)O)C(C)C)C(C)C)C(=O)N[C@@H](C)C(=O)N[C@@H](Cc1c[nH]cn1)C(=O)N[C@@H](CC(C)C)C(=O)N[C@H](C(=O)N[C@@H](CCC(N)=O)C(=O)NCC(=O)N[C@@H](CCCNC(=N)N)C(=O)N[C@@H](CCCCNC(=O)COCCOCCNC(=O)COCCOCCNC(=O)CC[C@H](NC(=O)CCCCCCCCCCCCC(=O)O)C(=O)O)C(=O)O)C(C)C", "note": "[Example 17, N^ε27-[2-[2-[2-[[2-[2-[2-[[(4S)-4-carboxy-4-(13-carboxytridecanoylamino)butanoyl]amino]ethoxy]ethoxy]acetyl]amino]ethoxy]ethoxy]acetyl], N^ε37-[2-[2-[2-[[2-[2-[2-[[(4S)-4-carboxy-4-(13-carboxytridecanoylamino)butanoyl]amino]ethoxy]ethoxy]acetyl]amino]ethoxy]ethoxy]acetyl]-[Glu^22,Glu^23,Val^25,Arg^26,Lys^27,His^31,Gln^34,Lys^37]-GLP-1-(7-37)-peptide] (H-HAEGTFTSDVSSYLEEEAVRK([AEEA-AEEA-γGlu-C14 diacid])FIAHLVQGRK([AEEA-AEEA-γGlu-C14 diacid])-OH; N-terminus and C-terminus assumed)", "values": [
      {"measurement": "Dose-corrected exposure at 30 min", "setting": "[1]", "value": 168},
      {"measurement": "half-life", "setting": "[3]", "value": 10, "unit": "h"}
    ]},
    {"molecule": "CC[C@H](C)[C@H](NC(=O)[C@H](Cc1ccccc1)NC(=O)[C@H](CCCCNC(=O)COCCOCCNC(=O)COCCOCCNC(=O)CC[C@H](NC(=O)CCCCCCCCCOc1ccc(C(=O)O)cc1)C(=O)O)NC(=O)[C@H](CCCNC(=N)N)NC(=O)[C@H](C)NC(=O)[C@H](C)NC(=O)[C@H](CCC(N)=O)NC(=O)[C@H](CCC(=O)O)NC(=O)[C@H](CCC(=O)O)NC(=O)[C@H](CC(C)C)NC(=O)[C@H](Cc1ccc(O)cc1)NC(=O)[C@H](CO)NC(=O)[C@H](CO)NC(=O)[C@@H](NC(=O)[C@H](CC(=O)O)NC(=O)[C@H](CO)NC(=O)[C@@H](NC(=O)[C@H](Cc1ccccc1)NC(=O)[C@@H](NC(=O)CNC(=O)[C@H](CCC(=O)O)NC(=O)C(C)(C)NC(=O)[C@@H](N)Cc1c[nH]cn1)[C@@H](C)O)[C@@H](C)O)C(C)C)C(=O)N[C@@H](CCC(=O)O)C(=O)N[C@@H](Cc1c[nH]c2ccccc12)C(=O)N[C@@H](CC(C)C)C(=O)N[C@H](C(=O)N[C@@H](CCCNC(=N)N)C(=O)NCC(=O)N[C@@H](CCCCNC(=O)COCCOCCNC(=O)COCCOCCNC(=O)CC[C@H](NC(=O)CCCCCCCCCOc1ccc(C(=O)O)cc1)C(=O)O)C(=O)NCC(=O)N[C@@H](CCC(=O)O)C(=O)NCC(=O)O)C(C)C", "note": "[Example 31, N^ε27-[2-[2-[2-[[2-[2-[2-[[(4S)-4-carboxy-4-[10-(4-carboxyphenoxy)decanoylamino]butanoyl]amino]ethoxy]ethoxy]acetyl]amino]ethoxy]ethoxy]acetyl], N^ε36-[2-[2-[2-[[2-[2-[2-[[(4S)-4-carboxy-4-[10-(4-carboxyphenoxy)decanoylamino]butanoyl]amino]ethoxy]ethoxy]acetyl]amino]ethoxy]ethoxy]acetyl]-[Aib^8,Glu^22,Arg^26,Lys^27,Glu^30,Arg^34,Lys^36]-GLP-1-(7-37)-peptidyl-Glu-Gly] (H-H[Aib]EGTFTSDVSSYLEEQAARK([AEEA-AEEA-γGlu-Decanoyl(10-(4-HOOC-PhO))])FIEWLVRGK([AEEA-AEEA-γGlu-Decanoyl(10-(4-HOOC-PhO))])GEG-OH; N-terminus and C-terminus assumed)", "values": [
      {"measurement": "Ratio [(IC50/nM) high HSA]/[(IC50/nM) low HSA]", "setting": "[4]", "value": 629},
      {"measurement": "half-life", "setting": "[3]", "value": 19, "unit": "h"}
    ]}
  ]
}
